Assay results taken from EPA's ToxValDB 9.5.

System: Rattus norvegicus
Settings: oral
[1] = acute, gavage, M, Wistar, Central Nervous System: Novel object recognition test
[2] = chronic, duration: 110 days, gavage, M, Sprague-Dawley, Adrenal: Progesterone (P4)
[3] = chronic, duration: 110 days, gavage, M, Sprague-Dawley, Kidney: Blood Urea Nitrogen (BUN) + Kidney: Creatinine (CREAT), Blood + Liver: Alkaline Phosphatase (ALP), Blood + Liver: Bile Acids, Blood
[4] = chronic, duration: 110 days, gavage, M, Sprague-Dawley, Liver: Liver Histopathology + Liver: Triglycerides (TRIG), Blood
[5] = chronic, duration: 110 days, gavage, M, Sprague-Dawley, Liver: Total Bilirubin (TBILI), Blood + Whole Body: Body Weight Change (0-110d) + Whole Body: Body Weight Change (60-90d) + Whole Body: Body…
[6] = chronic, duration: 110 days, gavage, M, Sprague-Dawley, Testis: Testes, Non-Neoplastic Lesions + Whole Body: Body Weight, Absolute
[7] = chronic, duration: 110 days, gavage, M, Sprague-Dawley, Testis: Testosterone (T)
[8] = reproduction developmental, duration: 14 days, gavage, F, Crl:CD(SD), generation: P0, P0: Heart: Heart Weight, Absolute + P0: Liver: Liver Weight, Relative + P0: Pituitary: Pituitary Gland Weight, Absolute + P0: Spleen: Spleen…
[9] = reproduction developmental, duration: 42 days, gavage, M, Crl:CD(SD), generation: P0, P0: Adrenal Gland: Adrenal Gland, Atrophy of the cortex + P0: Adrenal: Adrenal Gland Weight, Absolute + P0: Blood: Albumin/Globulin (A/G) …
[10] = reproduction developmental, duration: 42 days, gavage, M, Crl:CD(SD), generation: P0, P0: Liver: Alkaline Phosphatase (ALP) + P0: Liver: Liver Weight, Relative + P0: Protein Fraction, Globulin alpha-2
[11] = short-term, duration: 2 weeks, gavage, M, Sprague-Dawley, Adrenal: Estradiol + Adrenal: Testosterone (T) + Testis: Testes Weight, Relative + Whole Body: Body Weight, Absolute
[12] = short-term, duration: 2 weeks, gavage, M, Sprague-Dawley, Liver: Cholesterol (CHOL), Total + Liver: Triglycerides (TRIG), Liver + Liver: Triglycerides (TRIG), Serum
[13] = short-term, duration: 2 weeks, gavage, M, Sprague-Dawley, Liver: Cholesterol (CHOL), Total + Pituitary: Leuteinizing hormone (LH) + Testis: Testes Weight, Absolute
[14] = short-term, duration: 2 weeks, gavage, M, Sprague-Dawley, Liver: Liver Weight, Absolute + Liver: Liver Weight, Relative
[15] = short-term, duration: 28 days, F, Sprague-Dawley, Multi-Organ: Cholesterol (CHOL), Total + Multi-Organ: Estradiol + Whole Body: Body Weight, Absolute

SMILES: O=C(O)C(F)(F)C(F)(F)C(F)(F)C(F)(F)C(F)(F)C(F)(F)C(F)(F)C(F)(F)C(F)(F)C(F)(F)C(F)(F)F [Perfluorododecanoic acid]
- NOAEL (acute, gavage, M, Wistar, Brain: Brain Weight, Absolute + Central Nervous System: Elevated platform test (elevated plus test) + Central Nervous System: Forced Swim …): 50 mg/kg-day
- LOAEL (acute, gavage, M, Wistar, Brain: Brain Weight, Relative + Central Nervous System: Elevated platform test (elevated plus test) + Central Nervous System: Novel object …): 50 mg/kg-day
- LOAEL [1]: 20 mg/kg-day
- NOAEL [1]: 5 mg/kg-day
- LOAEL [2]: 0.2 mg/kg-day
- NOAEL [2]: 0.02 mg/kg-day
- LOAEL [3]: 0.2 mg/kg-day
- NOAEL [3]: 0.05 mg/kg-day
- LOAEL (chronic, duration: 110 days, gavage, M, Sprague-Dawley, Kidney: Creatine Kinase (CK), Blood + Liver: Albumin (A), Blood + Liver: Liver Weight, Absolute + Liver: Liver Weight, Relative + Liver: Low…): 0.02 mg/kg-day
- NOAEL (chronic, duration: 110 days, gavage, M, Sprague-Dawley, Leuteinizing hormone (LH) + Pancreas: Insulin + Pituitary: Follicle stimulating hormone (FSH) + Pituitary: Growth Hormone + Prostate: …): 0.5 mg/kg-day
- NOAEL (chronic, duration: 110 days, gavage, M, Sprague-Dawley, Liver: Alanine Aminotransferase (ALT), Blood + Liver: Aspartate Aminotransferase (AST), Blood + Liver: Cholesterol (CHOL), Total, Blood + …): 0.5 mg/kg-day
- LOAEL [4]: 0.05 mg/kg-day
- NOAEL [4]: 0.02 mg/kg-day
- LOAEL [5]: 0.5 mg/kg-day
- NOAEL [5]: 0.2 mg/kg-day
- LOAEL [6]: 0.5 mg/kg-day
- NOAEL [6]: 0.2 mg/kg-day
- LOAEL [7]: 0.2 mg/kg-day
- NOAEL [7]: 0.05 mg/kg-day
- NOAEL (developmental, duration: 14 days, gavage, F, Crl:CD(SD), generation: F1, F1: Whole Body: Body Weight, Fetal, PND0 + F1: Whole Body: Body Weight, Fetal, PND1 + F1: Whole Body: Body Weight, Fetal, PND4): 0.5 mg/kg-day
- NOAEL (developmental, duration: 14 days, gavage, M, Crl:CD(SD), generation: F1, F1: Whole Body: Body Weight, Fetal, PND0 + F1: Whole Body: Body Weight, Fetal, PND1 + F1: Whole Body: Body Weight, Fetal, PND4): 0.5 mg/kg-day
- NOAEL (reproduction developmental, duration: 14 days, gavage, F, Crl:CD(SD), generation: P0, P0: Adrenal Gland: Adrenal Gland, Atrophy of the cortex + P0: Bone Marrow: Bone Marrow, Decrease in hematopoiesis + P0: Forestomach: …): 2.5 mg/kg-day
- NOAEL (reproduction developmental, duration: 14 days, gavage, F, Crl:CD(SD), generation: P0, P0: Adrenal: Adrenal Gland Weight, Absolute + P0: Adrenal: Adrenal Gland Weight, Relative + P0: Blood: Activated Partial Thromboplastin Time…): 0.5 mg/kg-day
- LOAEL (reproduction developmental, duration: 14 days, gavage, F, Crl:CD(SD), generation: P0, P0: Blood: Hematocrit (HCT) + P0: Blood: Hematocrit (HCT), Recovery + P0: Blood: Hemoglobin (HGB), Recovery + P0: Blood: Mean Corpuscular …): 2.5 mg/kg-day
- LOAEL [8]: 0.5 mg/kg-day
- NOAEL [8]: 0.1 mg/kg-day
- LOAEL (reproduction developmental, duration: 14 days, gavage, F, Crl:CD(SD), generation: P0, P0: Multi-Organ: Protein Fraction, Albumin): 0.1 mg/kg-day
- NOAEL (reproduction developmental, duration: 14 days, gavage, M/F, Crl:CD(SD), generation: F1, F1: Uterus: Fetuses, Dead + F1: Uterus: Fetuses, Live + F1: Whole Body: Live Birth Index + F1: Whole Body: Live Pups on Lactation Day 4 + F1…): 0.5 mg/kg-day
- LOAEL [9]: 2.5 mg/kg-day
- NOAEL [9]: 0.5 mg/kg-day
- NOAEL (reproduction developmental, duration: 42 days, gavage, M, Crl:CD(SD), generation: P0, P0: Adrenal: Adrenal Gland Weight, Relative + P0: Basophils + P0: Blood: Activated Partial Thromboplastin Time (APTT) + P0: Blood: …): 2.5 mg/kg-day
- LOAEL [10]: 0.5 mg/kg-day
- NOAEL [10]: 0.1 mg/kg-day
- LOAEL [11]: 5 mg/kg-day
- NOAEL [11]: 1 mg/kg-day
- LOAEL [12]: 10 mg/kg-day
- NOAEL [12]: 5 mg/kg-day
- LOAEL [13]: 10 mg/kg-day
- NOAEL [13]: 5 mg/kg-day
- LOAEL [14]: 5 mg/kg-day
- NOAEL [14]: 1 mg/kg-day
- NOAEL (short-term, duration: 2 weeks, gavage, M, Sprague-Dawley, Pituitary: Follicle stimulating hormone (FSH)): 10 mg/kg-day
- NOAEL (short-term, duration: 28 days, F, Sprague-Dawley, Leuteinizing hormone (LH) + Multi-Organ: Follicle stimulating hormone (FSH) + Ovary: Follicle Count, Antral + Ovary: Follicle Count, …): 3 mg/kg-day
- LOAEL [15]: 3 mg/kg-day
- NOAEL [15]: 1.5 mg/kg-day
